Measured values from PubChem BioAssay AID248 (DTP/NCI, 2004).
Toxic doses and inconclusive results are not listed. Rule as the data show it: active = T/C of 150% or more; inactive = T/C below 125%.

System: L1210 leukemia ip in BDF1 mice, survival T/C
Assay: NCI In Vivo Anticancer Drug Screen. Data for tumor model L1210 Leukemia (intraperitoneal) in B6D2F1 (BDF1) mice
Settings: endpoint: mean survival time, higher = longer survival
Outline: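 Transplanted-tumor mice were given test agent; controls received vehicle only. Survival readings from the two groups were divided (treated over control).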

[1] = dose: 100.0 mg/kg/injection, schedule: Q04DX003 (ip), vehicle: saline
[2] = dose: 100.0 mg/kg/injection, schedule: Q01DX009 (ip), vehicle: saline
[3] = dose: 100.0 mg/kg/injection, schedule: Q04DX002 (ip), vehicle: saline with Tween-80
[4] = dose: 200.0 mg/kg/injection, schedule: Q04DX002 (ip), vehicle: saline with Tween-80
[5] = dose: 75.0 mg/kg/injection, schedule: Q01DX001 (ip), vehicle: carboxymethylcellulose (CMC)
[6] = dose: 50.0 mg/kg/injection, schedule: Q01DX009 (ip), vehicle: saline with Tween-80
[7] = dose: 100.0 mg/kg/injection, schedule: Q01DX009 (ip), vehicle: saline with Tween-80
[8] = dose: 200.0 mg/kg/injection, schedule: Q01DX009 (ip), vehicle: saline with Tween-80
[9] = dose: 100.0 mg/kg/injection, schedule: Q01DX001 (ip), vehicle: carboxymethylcellulose (CMC)
[10] = dose: 200.0 mg/kg/injection, schedule: Q01DX001 (ip), vehicle: carboxymethylcellulose (CMC)
[11] = dose: 400.0 mg/kg/injection, schedule: Q01DX001 (ip), vehicle: carboxymethylcellulose (CMC)
[12] = dose: 100.0 mg/kg/injection, schedule: Q01DX009 (ip), vehicle: Klucel (hydroxypropylcellulose) (HPC)
[13] = dose: 200.0 mg/kg/injection, schedule: Q01DX009 (ip), vehicle: Klucel (hydroxypropylcellulose) (HPC)

Measured: T/C

O=S(Cc1ncc2cnccn12)c1ccccc1 (configuration not stated)
inactive: dose: 50.0 mg/kg/injection, schedule: Q01DX005 (ip), vehicle: saline 110 % of control | dose: 100.0 mg/kg/injection, schedule: Q01DX005 (ip), vehicle: saline 104 % of control | [1] 101 % of control | dose: 200.0 mg/kg/injection, schedule: Q01DX005 (ip), vehicle: saline 104 % of control | dose: 200.0 mg/kg/injection, schedule: Q04DX003 (ip), vehicle: saline 105 % of control | dose: 400.0 mg/kg/injection, schedule: Q01DX005 (ip), vehicle: saline 105 % of control | dose: 400.0 mg/kg/injection, schedule: Q04DX003 (ip), vehicle: saline 105 % of control

CCN(CC)CCOC(=O)N(c1ccccc1)c1ccccc1
inactive: dose: 6.25 mg/kg/injection, schedule: Q01DX009 (ip), vehicle: saline 103 % of control | dose: 12.5 mg/kg/injection, schedule: Q01DX009 (ip), vehicle: saline 106 % of control | dose: 25.0 mg/kg/injection, schedule: Q01DX009 (ip), vehicle: saline 104 % of control | dose: 25.0 mg/kg/injection, schedule: Q04DX003 (ip), vehicle: saline 92 % of control | dose: 50.0 mg/kg/injection, schedule: Q01DX009 (ip), vehicle: saline 95 % of control | dose: 50.0 mg/kg/injection, schedule: Q04DX003 (ip), vehicle: saline 103 % of control | [2] 100 % of control | [1] 103 % of control

O=C(O)c1c(F)c(F)c(-c2c(F)c(F)c(C(=O)O)c(F)c2F)c(F)c1F
inactive: dose: 100.0 mg/kg/injection, schedule: Q01DX001 (ip), vehicle: saline with Tween-80 93 % of control | dose: 200.0 mg/kg/injection, schedule: Q01DX001 (ip), vehicle: saline with Tween-80 95 % of control | dose: 400.0 mg/kg/injection, schedule: Q01DX001 (ip), vehicle: saline with Tween-80 93 % of control

Cc1cc2nc3c(N)ccc(N)c3nc2cc1N
inactive: [3] 97 % of control | [4] 97 % of control | dose: 400.0 mg/kg/injection, schedule: Q04DX002 (ip), vehicle: saline with Tween-80 105 % of control

OCc1nc2cc3nc(CO)[nH]c3cc2[nH]1
inactive: [5] 98 % of control | dose: 150.0 mg/kg/injection, schedule: Q01DX001 (ip), vehicle: carboxymethylcellulose (CMC) 101 % of control

O=c1oc2ccccc2c(O)c1C(c1ccc(C(c2c(O)c3ccccc3oc2=O)c2c(O)c3ccccc3oc2=O)cc1)c1c(O)c2ccccc2oc1=O
inactive: dose: 100.0 mg/kg/injection, schedule: Q04DX003 (ip), vehicle: Klucel (hydroxypropylcellulose) (HPC) 105 % of control | dose: 200.0 mg/kg/injection, schedule: Q04DX003 (ip), vehicle: Klucel (hydroxypropylcellulose) (HPC) 99 % of control | dose: 400.0 mg/kg/injection, schedule: Q04DX003 (ip), vehicle: Klucel (hydroxypropylcellulose) (HPC) 93 % of control

O=C(Nc1ccccc1)OC(C[N+](=O)[O-])C(Cl)(Cl)Cl (configuration not stated)
inactive: [5] 98 % of control

c1ccc2sc(SSN3CCSCC3)nc2c1
inactive: dose: 75.0 mg/kg/injection, schedule: Q04DX003 (ip), vehicle: Klucel (hydroxypropylcellulose) (HPC) 102 % of control | dose: 100.0 mg/kg/injection, schedule: Q01DX001 (ip), vehicle: other 98 % of control | dose: 150.0 mg/kg/injection, schedule: Q04DX003 (ip), vehicle: Klucel (hydroxypropylcellulose) (HPC) 100 % of control | dose: 200.0 mg/kg/injection, schedule: Q01DX001 (ip), vehicle: other 92 % of control | dose: 300.0 mg/kg/injection, schedule: Q04DX003 (ip), vehicle: Klucel (hydroxypropylcellulose) (HPC) 89 % of control | dose: 400.0 mg/kg/injection, schedule: Q01DX001 (ip), vehicle: other 97 % of control

O=C1C2CCC(C2)C1C(O)(C(F)(F)F)C(F)(F)F (configuration not stated)
inactive: dose: 25.0 mg/kg/injection, schedule: Q01DX009 (ip), vehicle: saline with Tween-80 101 % of control | [6] 100 % of control | dose: 50.0 mg/kg/injection, schedule: Q04DX003 (ip), vehicle: saline with Tween-80 101 % of control | [7] 91 % of control | dose: 100.0 mg/kg/injection, schedule: Q04DX003 (ip), vehicle: saline with Tween-80 98 % of control | dose: 200.0 mg/kg/injection, schedule: Q04DX003 (ip), vehicle: saline with Tween-80 91 % of control

Cc1cc(C)nc(NS(=O)(=O)c2ccc(NC(=O)Nc3ccc(F)cc3F)cc2)n1
inactive: [6] 96 % of control | [7] 93 % of control | [8] 101 % of control

Cc1cc(Cl)cc(CN(C)Cc2c(C)[nH]c(=O)[nH]c2=O)c1O
inactive: [9] 97 % of control | [10] 94 % of control | [11] 97 % of control

CCCCc1ccncc1
inactive: dose: 5.0 mg/kg/injection, schedule: Q01DX001 (ip), vehicle: saline 102 % of control | dose: 10.0 mg/kg/injection, schedule: Q01DX001 (ip), vehicle: saline 100 % of control | dose: 20.0 mg/kg/injection, schedule: Q01DX001 (ip), vehicle: saline 100 % of control | dose: 40.0 mg/kg/injection, schedule: Q01DX001 (ip), vehicle: saline 90 % of control | dose: 80.0 mg/kg/injection, schedule: Q01DX001 (ip), vehicle: saline 93 % of control | dose: 100.0 mg/kg/injection, schedule: Q01DX001 (ip), vehicle: saline 98 % of control

Cc1cc2oc(/C=N\Nc3nc4ccccc4s3)c(C)c2cc1C
inactive: [12] 94 % of control | [13] 96 % of control | dose: 400.0 mg/kg/injection, schedule: Q01DX009 (ip), vehicle: Klucel (hydroxypropylcellulose) (HPC) 108 % of control

CCCCCCCCCCCCOCC[N+](C/C=C/c1ccccc1)(CCO)CCO
inactive: dose: 6.25 mg/kg/injection, schedule: Q01DX009 (ip), vehicle: saline with Tween-80 93 % of control | dose: 12.5 mg/kg/injection, schedule: Q01DX009 (ip), vehicle: saline with Tween-80 95 % of control

Clc1ccc(Sc2ccc(Br)cc2)cc1
inactive: dose: 50.0 mg/kg/injection, schedule: Q01DX001 (ip), vehicle: carboxymethylcellulose (CMC) 103 % of control | [9] 101 % of control | [10] 103 % of control | [11] 101 % of control

O=C(O)c1ccccc1Br
inactive: [3] 96 % of control | [4] 93 % of control

COC(=O)C1=C(C(=O)OC)C2(O)c3ccccc3C1c1ccccc12
inactive: [2] 100 % of control | dose: 200.0 mg/kg/injection, schedule: Q01DX009 (ip), vehicle: saline 93 % of control | dose: 400.0 mg/kg/injection, schedule: Q01DX009 (ip), vehicle: saline 88 % of control

O=C(c1ccc(-c2ccccc2)cc1)C1CC1c1ccccc1 (configuration not stated)
inactive: dose: 100.0 mg/kg/injection, schedule: Q01DX009 (ip), vehicle: saline sonified 97 % of control | dose: 200.0 mg/kg/injection, schedule: Q01DX009 (ip), vehicle: saline sonified 96 % of control | dose: 400.0 mg/kg/injection, schedule: Q01DX009 (ip), vehicle: saline sonified 91 % of control

O=C1c2cccc3cccc(c23)C(=O)N1NCCO
inactive: [12] 93 % of control | [13] 89 % of control

CN1CC2C3C=CC(C3)C2C1 (configuration not stated)
inactive: dose: 75.0 mg/kg/injection, schedule: Q01DX001 (ip), vehicle: other 96 % of control | dose: 150.0 mg/kg/injection, schedule: Q01DX001 (ip), vehicle: other 88 % of control

Cc1cccc(C)c1NC(=O)Nc1ccc(CCO)cc1
inactive: [12] 97 % of control | [13] 98 % of control

O=C(COc1ccc(Cl)cc1)Nc1ccccc1Br
inactive: dose: 100.0 mg/kg/injection, schedule: Q04DX002 (ip), vehicle: saline + alcohol 96 % of control | dose: 200.0 mg/kg/injection, schedule: Q04DX002 (ip), vehicle: saline + alcohol 107 % of control | dose: 400.0 mg/kg/injection, schedule: Q04DX002 (ip), vehicle: saline + alcohol 103 % of control

CN(C=O)C(=S)[S][Sb]([S]C(=S)Nc1ccc(S(=O)(=O)Nc2ccc(N=Nc3ccccc3)cc2)cc1)[S]C(=S)N(C)C=O
inactive: dose: 100.0 mg/kg/injection, schedule: Q01DX001 (ip), vehicle: steriod suspending solution 106 % of control | dose: 200.0 mg/kg/injection, schedule: Q01DX001 (ip), vehicle: steriod suspending solution 90 % of control

Cc1cc(C)c2c(=O)[nH][nH]c2n1
inactive: [6] 105 % of control | [7] 100 % of control | [8] 91 % of control
